Measured values from PubChem BioAssay (NCI).
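Following 48 hours of exposure in 96-well plates, responses at five concentrations were used to interpolate endpoints linearly. Here, GI50 denotes the concentration required for 50% inhibition of growth. Definition used: TGI = concentration required for complete inhibition of growth.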

Tests used:
Test in all cases: NCI anticancer screen, dose series, 48 h
HL-60(TB) leukemia = tested on: HL-60(TB) leukemia
PC-3 prostate = tested on: PC-3 prostate
NCI-H226 lung = tested on: NCI-H226 lung
A549 NSCLC = tested on: A549 NSCLC
SF-268 CNS = tested on: SF-268 CNS
RXF 393 renal = tested on: RXF 393 renal
HCT-116 colon = tested on: HCT-116 colon
COLO 205 colon = tested on: COLO 205 colon
RPMI-8226 leukemia = tested on: RPMI-8226 leukemia
ACHN renal = tested on: ACHN renal
SN12C renal = tested on: SN12C renal
SNB-19 CNS = tested on: SNB-19 CNS
MCF7 breast = tested on: MCF7 breast
EKVX NSCLC = tested on: EKVX NSCLC
MDA-MB-435 = tested on: MDA-MB-435
IGROV1 ovarian = tested on: IGROV1 ovarian
SK-MEL-2 melanoma = tested on: SK-MEL-2 melanoma
HT29 colon = tested on: HT29 colon
CAKI-1 renal = tested on: CAKI-1 renal
DU-145 prostate = tested on: DU-145 prostate
786-0 renal = tested on: 786-0 renal
TK-10 renal = tested on: TK-10 renal
U251 CNS = tested on: U251 CNS
SNB-75 CNS = tested on: SNB-75 CNS
UACC-257 melanoma = tested on: UACC-257 melanoma
OVCAR-8 ovarian = tested on: OVCAR-8 ovarian
SF-539 CNS = tested on: SF-539 CNS
SK-MEL-28 melanoma = tested on: SK-MEL-28 melanoma
CCRF-CEM leukemia = tested on: CCRF-CEM leukemia
NCI-H23 lung = tested on: NCI-H23 lung
NCI-H460 lung = tested on: NCI-H460 lung
SF-295 CNS = tested on: SF-295 CNS
BT-549 breast = tested on: BT-549 breast
UO-31 renal = tested on: UO-31 renal
HCT-15 colon = tested on: HCT-15 colon
NCI/ADR-RES ovarian = tested on: NCI/ADR-RES ovarian
HOP-62 NSCLC = tested on: HOP-62 NSCLC
NCI-H522 lung = tested on: NCI-H522 lung
HS 578T breast = tested on: HS 578T breast
OVCAR-5 ovarian = tested on: OVCAR-5 ovarian
OVCAR-3 ovarian = tested on: OVCAR-3 ovarian
LOX IMVI melanoma = tested on: LOX IMVI melanoma
MOLT-4 leukemia = tested on: MOLT-4 leukemia
SK-MEL-5 melanoma = tested on: SK-MEL-5 melanoma
UACC-62 melanoma = tested on: UACC-62 melanoma
KM12 colon = tested on: KM12 colon
SW-620 colon = tested on: SW-620 colon
SR leukemia = tested on: SR leukemia
MDA-MB-231 breast = tested on: MDA-MB-231 breast
K-562 leukemia = tested on: K-562 leukemia

Q: Which GI50 (HL-60(TB) leukemia) does the source give for `CN(c1ccc(C(=O)O)cc1)c1cc(O/N=[N+](\[O-])N(C)C)c([N+](=O)[O-])cc1[N+](=O)[O-]` here?
A: 2.84 µM

Q: And the TGI (HL-60(TB) leukemia)?
A: 27.4 µM

Q: What about the GI50 (PC-3 prostate) of the same compound?
A: 17.5 µM

Q: What about the TGI (PC-3 prostate) of the same compound?
A: 38.1 µM

Q: What about the GI50 (NCI-H226 lung) of the same compound?
A: 11.3 µM

Q: What about the TGI (NCI-H226 lung) of the same compound?
A: 29 µM

Q: And the GI50 (A549 NSCLC)?
A: 23.5 µM

Q: What about the TGI (A549 NSCLC) of the same compound?
A: 63.7 µM

Q: What about the GI50 (SF-268 CNS) of the same compound?
A: 13.1 µM

Q: What about the TGI (SF-268 CNS) of the same compound?
A: 36.3 µM

Q: And the GI50 (RXF 393 renal)?
A: 17.1 µM

Q: And the TGI (RXF 393 renal)?
A: 33.8 µM

Q: And the GI50 (HCT-116 colon)?
A: 2.72 µM

Q: And the TGI (HCT-116 colon)?
A: 10.4 µM

Q: What about the GI50 (COLO 205 colon) of the same compound?
A: 8.78 µM

Q: And the TGI (COLO 205 colon)?
A: > 100 µM

Q: And the GI50 (RPMI-8226 leukemia)?
A: 2.79 µM

Q: What about the TGI (RPMI-8226 leukemia) of the same compound?
A: 18 µM

Q: And the GI50 (ACHN renal)?
A: 3.8 µM

Q: What about the TGI (ACHN renal) of the same compound?
A: 14.1 µM

Q: What about the GI50 (SN12C renal) of the same compound?
A: 12.2 µM

Q: What about the TGI (SN12C renal) of the same compound?
A: 25.3 µM

Q: What about the GI50 (SNB-19 CNS) of the same compound?
A: 14.6 µM

Q: And the TGI (SNB-19 CNS)?
A: 40.7 µM

Q: And the GI50 (MCF7 breast)?
A: 6.8 µM

Q: What about the TGI (MCF7 breast) of the same compound?
A: 54.8 µM

Q: What about the GI50 (EKVX NSCLC) of the same compound?
A: 18.2 µM

Q: What about the TGI (EKVX NSCLC) of the same compound?
A: 36.2 µM

Q: And the GI50 (MDA-MB-435)?
A: 4.84 µM

Q: What about the TGI (MDA-MB-435) of the same compound?
A: 19.9 µM

Q: And the GI50 (IGROV1 ovarian)?
A: 5.48 µM

Q: And the TGI (IGROV1 ovarian)?
A: 24.5 µM

Q: What about the GI50 (SK-MEL-2 melanoma) of the same compound?
A: 14.9 µM

Q: What about the TGI (SK-MEL-2 melanoma) of the same compound?
A: 39.6 µM

Q: And the GI50 (HT29 colon)?
A: 23 µM

Q: What about the TGI (HT29 colon) of the same compound?
A: > 100 µM

Q: What about the GI50 (CAKI-1 renal) of the same compound?
A: 1.79 µM

Q: And the TGI (CAKI-1 renal)?
A: 4 µM

Q: What about the GI50 (DU-145 prostate) of the same compound?
A: 17.1 µM

Q: And the TGI (DU-145 prostate)?
A: 33.5 µM

Q: What about the GI50 (786-0 renal) of the same compound?
A: 3.25 µM

Q: And the TGI (786-0 renal)?
A: 14.6 µM

Q: What about the GI50 (TK-10 renal) of the same compound?
A: 13.9 µM

Q: And the TGI (TK-10 renal)?
A: 26.9 µM

Q: And the GI50 (U251 CNS)?
A: 3.69 µM

Q: And the TGI (U251 CNS)?
A: 14.1 µM

Q: And the GI50 (SNB-75 CNS)?
A: 25.6 µM

Q: What about the TGI (SNB-75 CNS) of the same compound?
A: 55.6 µM

Q: What about the GI50 (UACC-257 melanoma) of the same compound?
A: 21 µM

Q: What about the TGI (UACC-257 melanoma) of the same compound?
A: 40.6 µM

Q: What about the GI50 (OVCAR-8 ovarian) of the same compound?
A: 22.3 µM

Q: And the TGI (OVCAR-8 ovarian)?
A: 54.5 µM

Q: And the GI50 (SF-539 CNS)?
A: 16.6 µM

Q: And the TGI (SF-539 CNS)?
A: 35.8 µM

Q: And the GI50 (SK-MEL-28 melanoma)?
A: 21 µM

Q: And the TGI (SK-MEL-28 melanoma)?
A: 57.1 µM

Q: What about the GI50 (CCRF-CEM leukemia) of the same compound?
A: > 100 µM

Q: What about the TGI (CCRF-CEM leukemia) of the same compound?
A: > 100 µM

Q: And the GI50 (NCI-H23 lung)?
A: 4.83 µM

Q: What about the TGI (NCI-H23 lung) of the same compound?
A: 29.2 µM

Q: And the GI50 (NCI-H460 lung)?
A: 18.9 µM

Q: And the TGI (NCI-H460 lung)?
A: > 100 µM

Q: And the GI50 (SF-295 CNS)?
A: 12.6 µM

Q: And the TGI (SF-295 CNS)?
A: 27 µM

Q: And the GI50 (BT-549 breast)?
A: 17.4 µM

Q: And the TGI (BT-549 breast)?
A: 32.6 µM

Q: And the GI50 (UO-31 renal)?
A: 32.1 µM

Q: And the TGI (UO-31 renal)?
A: > 100 µM

Q: And the GI50 (HCT-15 colon)?
A: 2.03 µM

Q: What about the TGI (HCT-15 colon) of the same compound?
A: 5.3 µM

Q: And the GI50 (NCI/ADR-RES ovarian)?
A: 3.35 µM

Q: And the TGI (NCI/ADR-RES ovarian)?
A: 17.2 µM

Q: What about the GI50 (HOP-62 NSCLC) of the same compound?
A: 14.5 µM

Q: What about the TGI (HOP-62 NSCLC) of the same compound?
A: 31.3 µM

Q: And the GI50 (NCI-H522 lung)?
A: 15.1 µM

Q: What about the TGI (NCI-H522 lung) of the same compound?
A: > 100 µM

Q: And the GI50 (HS 578T breast)?
A: 21.5 µM

Q: What about the TGI (HS 578T breast) of the same compound?
A: 61.3 µM

Q: What about the GI50 (OVCAR-5 ovarian) of the same compound?
A: 10.8 µM

Q: What about the TGI (OVCAR-5 ovarian) of the same compound?
A: 72.5 µM

Q: And the GI50 (OVCAR-3 ovarian)?
A: 2.62 µM

Q: What about the TGI (OVCAR-3 ovarian) of the same compound?
A: 6.92 µM

Q: And the GI50 (LOX IMVI melanoma)?
A: 1.86 µM

Q: What about the TGI (LOX IMVI melanoma) of the same compound?
A: 4.33 µM

Q: What about the GI50 (MOLT-4 leukemia) of the same compound?
A: 12.1 µM

Q: What about the TGI (MOLT-4 leukemia) of the same compound?
A: > 100 µM

Q: And the GI50 (SK-MEL-5 melanoma)?
A: 19.1 µM

Q: And the TGI (SK-MEL-5 melanoma)?
A: 38.7 µM

Q: What about the GI50 (UACC-62 melanoma) of the same compound?
A: 7.29 µM

Q: What about the TGI (UACC-62 melanoma) of the same compound?
A: 19.8 µM

Q: What about the GI50 (KM12 colon) of the same compound?
A: 10.9 µM

Q: What about the TGI (KM12 colon) of the same compound?
A: 23.9 µM

Q: What about the GI50 (SW-620 colon) of the same compound?
A: 3.64 µM

Q: And the TGI (SW-620 colon)?
A: > 100 µM

Q: And the GI50 (SR leukemia)?
A: 19.8 µM

Q: What about the TGI (SR leukemia) of the same compound?
A: > 100 µM

Q: And the GI50 (MDA-MB-231 breast)?
A: 3.71 µM

Q: What about the TGI (MDA-MB-231 breast) of the same compound?
A: 12.2 µM

Q: What about the GI50 (K-562 leukemia) of the same compound?
A: 6.99 µM

Q: And the TGI (K-562 leukemia)?
A: > 100 µM
